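Tested at 5 concentrations; 48 h exposure; 96-well plates; endpoints linearly interpolated, else capped at highest concentration. GI50 is the concentration that inhibits growth by half.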 Calls of active or inactive are those of the source. Rule as the data show it: active = GI50 up to about 1.1 µM and inactive = higher.
How the values were obtained:
Assay in all cases: NCI anticancer screen, dose series, 48 h
MDA-MB-231 = system: MDA-MB-231
SF-539 = system: SF-539
ACHN = system: ACHN
HT-29 = system: HT-29
786-0 = system: 786-0
NCI-H460 = system: NCI-H460
UACC-257 = system: UACC-257
SR = system: SR
K562 = system: K562
HCT-116 = system: HCT-116
LOX IMVI = system: LOX IMVI
IGROV-1 = system: IGROV-1
CAKI-1 = system: CAKI-1
KM12 = system: KM12
HCT-15 = system: HCT-15
NCI-H23 = system: NCI-H23
PC-3 = system: PC-3
HL-60 = system: HL-60

| Compound | GI50 (MDA-MB-231) | GI50 (SF-539) | GI50 (ACHN) | GI50 (HT-29) | GI50 (786-0) | GI50 (NCI-H460) | GI50 (UACC-257) | GI50 (SR) | GI50 (K562) | GI50 (HCT-116) | GI50 (LOX IMVI) | GI50 (IGROV-1) | GI50 (CAKI-1) | GI50 (KM12) | GI50 (HCT-15) | GI50 (NCI-H23) | GI50 (PC-3) | GI50 (HL-60) |
| --- | --- | --- | --- | --- | --- | --- | --- | --- | --- | --- | --- | --- | --- | --- | --- | --- | --- | --- |
| c1cc(CNCCN2CCNCC2)ccn1 | > 100 µM (inactive) | > 100 µM (inactive) | > 100 µM (inactive) | > 100 µM (inactive) | > 100 µM (inactive) | > 100 µM (inactive) | > 100 µM (inactive) | > 100 µM (inactive) | > 100 µM (inactive) | > 100 µM (inactive) | > 100 µM (inactive) | > 100 µM (inactive) | > 100 µM (inactive) | > 100 µM (inactive) | > 100 µM | > 100 µM (inactive) | > 100 µM (inactive) |  |
| COC1(OC)CC2C(=O)N(Cc3ccccc3)C1CC2S(=O)(=O)c1ccccc1 (stereo not given) |  | > 100 µM (inactive) | > 100 µM (inactive) | > 100 µM (inactive) | > 100 µM (inactive) | > 100 µM (inactive) | > 100 µM (inactive) |  | > 100 µM (inactive) | > 100 µM (inactive) | > 100 µM (inactive) | > 100 µM (inactive) |  | > 100 µM (inactive) | > 100 µM | > 100 µM (inactive) |  | > 100 µM (inactive) |
| COC(=O)c1sc(=O)sc1SCc1cccc(CSc2sc(=O)sc2C(=O)OC)c1 | 24.9 µM (inactive) |  | 30 µM (inactive) | > 100 µM (inactive) | 17.6 µM (inactive) | 35.1 µM (inactive) | 70.5 µM (inactive) |  | 43.3 µM (inactive) | 56.1 µM (inactive) | > 100 µM (inactive) | 30.7 µM (inactive) | 28.4 µM (inactive) | > 100 µM (inactive) | > 100 µM | 52.6 µM (inactive) | 29.2 µM (inactive) |  |
| Cc1ccc(C)n2c1nc1ccc3ccccc3c12 |  | > 100 µM (inactive) | > 100 µM (inactive) | > 100 µM (inactive) | > 100 µM (inactive) | > 100 µM (inactive) | > 100 µM (inactive) | > 100 µM (inactive) | > 100 µM (inactive) |  |  | > 100 µM (inactive) |  | > 100 µM (inactive) | > 100 µM | > 100 µM (inactive) | 67.9 µM (inactive) | > 100 µM (inactive) |
| CC(C)=CC(=O)c1[nH]c2ccccc2c1CC(=O)NCCc1cncn1C | 84.3 µM (inactive) | 60.7 µM (inactive) | 66.4 µM (inactive) | 35.7 µM (inactive) | 98.9 µM (inactive) | 52.6 µM (inactive) | 52.6 µM (inactive) | 17.2 µM (inactive) | 30.5 µM (inactive) | 67.9 µM (inactive) | 55.5 µM (inactive) | 47.4 µM (inactive) | > 100 µM (inactive) | 55.7 µM (inactive) | > 100 µM | 51.1 µM (inactive) | 50.2 µM (inactive) |  |
| Cc1cc(S(=O)(=O)Nc2nc(N)nc(N3N=CCC3C)n2)c(S)cc1Cl (stereo not given) |  | > 10 µM (inactive) | > 10 µM (inactive) | > 10 µM (inactive) | > 10 µM (inactive) | > 10 µM (inactive) | > 10 µM (inactive) | > 10 µM (inactive) | > 10 µM (inactive) | > 10 µM (inactive) | > 10 µM (inactive) | > 10 µM (inactive) | > 10 µM (inactive) | > 10 µM (inactive) | > 10 µM | > 10 µM (inactive) | > 10 µM (inactive) | > 10 µM (inactive) |
| O=C(O)c1cc(Cl)cc2c1NC1(N2)C(=O)Nc2ccccc21 (stereo not given) | > 100 µM (inactive) | > 100 µM (inactive) | > 100 µM (inactive) | 78.5 µM (inactive) | > 100 µM (inactive) | > 100 µM (inactive) | > 100 µM (inactive) | 65.8 µM (inactive) | > 100 µM (inactive) | 56.4 µM (inactive) | 49 µM (inactive) | 33.3 µM (inactive) | > 100 µM (inactive) | > 100 µM (inactive) | 45.4 µM | > 100 µM (inactive) | > 100 µM (inactive) |  |
| COP1(=O)NCc2ncccc2O1 (stereo not given) | > 100 µM (inactive) | > 100 µM (inactive) | > 100 µM (inactive) | > 100 µM (inactive) | > 100 µM (inactive) | > 100 µM (inactive) | > 100 µM (inactive) | > 100 µM (inactive) | > 100 µM (inactive) | > 100 µM (inactive) | > 100 µM (inactive) | > 100 µM (inactive) | > 100 µM (inactive) | > 100 µM (inactive) | > 100 µM | > 100 µM (inactive) | > 100 µM (inactive) |  |
| O=C1CN(c2ccc(Cl)cc2)C(=O)CN1CCN1CC(=O)N(c2ccc(Cl)cc2)CC1=O |  |  | > 100 µM (inactive) | > 100 µM (inactive) | > 100 µM (inactive) | > 100 µM (inactive) | > 100 µM (inactive) | > 100 µM (inactive) |  | > 100 µM (inactive) |  | > 100 µM (inactive) | > 100 µM (inactive) | > 100 µM (inactive) | > 100 µM | > 100 µM (inactive) | > 100 µM (inactive) | > 100 µM (inactive) |
| CCN(CC)CCn1nc(N)c2nc3ccccc3nc21 |  | > 100 µM (inactive) | > 100 µM (inactive) | > 100 µM (inactive) | > 100 µM (inactive) | > 100 µM (inactive) | > 100 µM (inactive) | 59.8 µM (inactive) | > 100 µM (inactive) | 53.8 µM (inactive) | > 100 µM (inactive) | > 100 µM (inactive) | 72.6 µM (inactive) | > 100 µM (inactive) | > 100 µM | > 100 µM (inactive) | > 100 µM (inactive) | > 100 µM (inactive) |
| OCC(O)COCn1nncc1Cn1ncc2c(SCc3ccccc3)ncnc21 (stereo not given) | > 100 µM (inactive) | > 100 µM (inactive) | > 100 µM (inactive) | > 100 µM (inactive) | > 100 µM (inactive) |  | > 100 µM (inactive) |  |  | > 100 µM (inactive) | > 100 µM (inactive) | > 100 µM (inactive) | > 100 µM (inactive) | > 100 µM (inactive) | > 100 µM | > 100 µM (inactive) | > 100 µM (inactive) |  |
| CCCCCCCCCCCCCCCCCCNC(=S)N/C=C1\C(=O)Nc2ccccc2C1=O | 14.9 µM (inactive) | 19.7 µM (inactive) | 16.4 µM (inactive) | 16.9 µM (inactive) | 15.6 µM (inactive) | 16.1 µM (inactive) | 17.1 µM (inactive) |  |  | 15.7 µM (inactive) | 16.3 µM (inactive) | 5.83 µM (inactive) | 16.9 µM (inactive) | 16.1 µM (inactive) | 15.6 µM | 18.9 µM (inactive) |  | 4.92 µM (inactive) |
| O=[N+]([O-])c1ccc(SN=S=NSc2cccc(SN=S=NSc3ccc([N+](=O)[O-])cc3)c2)cc1 |  |  | 42.3 µM (inactive) | 33.2 µM (inactive) | 13.8 µM (inactive) | 31 µM (inactive) | 45.3 µM (inactive) | 26.8 µM (inactive) | 25.2 µM (inactive) | 29.7 µM (inactive) | 17.2 µM (inactive) | 39.8 µM (inactive) | 19 µM (inactive) | 34.2 µM (inactive) | 17.7 µM |  | 16.6 µM (inactive) | 28.2 µM (inactive) |
| O=C(O)c1cc(NC2=C(Cl)C(=O)c3c(O)ccc(O)c3C2=O)ccc1O | > 10 µM (inactive) | > 10 µM (inactive) | > 10 µM (inactive) | > 10 µM (inactive) | > 10 µM (inactive) | > 10 µM (inactive) | > 10 µM (inactive) |  | > 10 µM (inactive) | > 10 µM (inactive) | > 10 µM (inactive) | > 10 µM (inactive) | > 10 µM (inactive) | > 10 µM (inactive) | > 10 µM | > 10 µM (inactive) | > 10 µM (inactive) |  |
| COc1cc(C(=O)N(C)N(C)C)cc(OC)c1OC | > 10 µM (inactive) | > 10 µM (inactive) | > 10 µM (inactive) | > 10 µM (inactive) | > 10 µM (inactive) | > 10 µM (inactive) | > 10 µM (inactive) |  | > 10 µM (inactive) | > 10 µM (inactive) | > 10 µM (inactive) | > 10 µM (inactive) | > 10 µM (inactive) | > 10 µM (inactive) | > 10 µM | > 10 µM (inactive) | > 10 µM (inactive) | > 10 µM (inactive) |
| C[C@H]1CC[C@@H]2[C@@H](C)[C@H]3[C@H](C[C@H]4[C@@H]5CC=C6C[C@@H](O)CC[C@]6(C)[C@H]5C[C@H](O)[C@]34C)N2C1 | > 100 µM (inactive) | > 100 µM (inactive) | > 100 µM (inactive) | > 100 µM (inactive) | > 100 µM (inactive) | > 100 µM (inactive) | > 100 µM (inactive) | > 100 µM (inactive) | > 100 µM (inactive) | > 100 µM (inactive) | > 100 µM (inactive) | > 100 µM (inactive) | > 100 µM (inactive) | > 100 µM (inactive) | > 100 µM | > 100 µM (inactive) | > 100 µM (inactive) |  |
| c1cn[nH]c1 [PYRAZOLE] |  | > 10 µM (inactive) | > 10 µM (inactive) | > 10 µM (inactive) | > 10 µM (inactive) | > 10 µM (inactive) |  | > 10 µM (inactive) | > 10 µM (inactive) | > 10 µM (inactive) | > 10 µM (inactive) | > 10 µM (inactive) |  | > 10 µM (inactive) | > 10 µM | > 10 µM (inactive) | > 10 µM (inactive) | > 10 µM (inactive) |
| Cn1cc(NC(=O)c2cc(NC(=O)c3cc(NC=O)cn3C)cn2C)cc1C(=O)NCCC(=N)N [STALLIMYCIN] | > 100 µM (inactive) | > 100 µM (inactive) | > 100 µM (inactive) | > 100 µM (inactive) | > 100 µM (inactive) | > 100 µM (inactive) | > 100 µM (inactive) |  | > 100 µM (inactive) | > 100 µM (inactive) | > 100 µM (inactive) | > 100 µM (inactive) | > 100 µM (inactive) | > 100 µM (inactive) | > 100 µM | > 100 µM (inactive) | > 100 µM (inactive) | > 100 µM (inactive) |

From ChEMBL document CHEMBL1201862, “PubChem BioAssay data set” (2004)
